# Measurements taken from US20150368617A1, “METHOD FOR FORMING ENDOTHELIAL CELLS” (Korea Advanced Institute of Science and Technology (KAIST), priority 2012, published 2015).
# How the values were obtained:
# Type in all cases: cell-based, mouse
# CD144+ ECs = assay: BrdU/7-AAD cell cycle analysis and BrdU incorporation in differentiating Flk1+ MPCs
# Description: (§1) Apoptosis assay was performed as previously described. To determine the cell cycle, BrdU/7-AAD cell cycle analysis was performed according to the manufacturer's instructions (BD Pharmingen™). Briefly, cells were incubated with BrdU (1 mM) for 1 hr, dissociated with dissociation buffer, and stained with anti-CD144 antibody. The cells were then fixed, permeabilized, and fixed once more, followed by 1 hr incubation with DNase I (200 U) at 37┌ C. After incubation with FITC-conjugated anti-BrdU antibody for 20 min at RT, the cells were stained with 7-AAD. The cells were analyzed by FACS Aria II and the data were analyzed using FlowJo software.
# Flk1+ MPCs [1] = assay: Cell adhesion assay, Flk1+ MPCs; details: 6 hrs
# Description: Sorted Flk1+ MPCs or ICAM2+ ECs were plated onto Matrigel coated plates at a density of 10,000 cells/cm^2. Six hrs after plating, non-adherent cells were removed by washing and the cell number of adherent cells was counted following trypsinization. The percentage of adherent cells was calculated as (counted cell number/initial seeded cell number)×100.
# ICAM2+ ECs [2] = assay: Cell cycle FACS analysis in ICAM2+ ECs; details: 12 hrs after plating
# Description: (§2) FIGS. 15A-15D. ROCK suppression continuously promotes the expansion of ECs. ICAM2+ ECs were further incubated with PBS (Control), Y27632 (10┌ M), VEGF-A (50 ng/ml; VA) or Y27632 (10┌ M) plus VEGF-A (50 ng/ml) for 2 days, and analyses were performed at day 8.5. (FIG. 15A) Representative FACS analysis showing cell cycle in ICAM2+ ECs at 12 hrs. (FIG. 15B) % of ICAM2+ ECs under each phase of cell cycle at 12 hrs. Each group, n=3. *p<0.01 versus Control; ^#p<0.01 versus VEGF-A. (FIG. 15C) Representative FACS analysis of Annexin V+/PI− apoptotic ECs. (FIG. 15D) % of Annexin V+/PI− ECs. Each group, n=3. *p<0.01 versus Control.
# as §1
# ICAM2+ ECs [3] = assay: Apoptosis assay (Annexin V/PI) in ICAM2+ ECs
# Description: as §2, §1
# Flk1+ MPCs [4] = assay: CM differentiation from Flk1+ MPCs in OP9 co-culture system
# Description: EMG7 mouse ESCs which have ┌-myosin heavy chain (MHC) promoter driven enhanced green fluorescent protein (GFP) gene and OP9 cells were a generous gift from Dr. Jun K. Yamashita (Kyoto University). EMG7 ESCs were plated on a 0.1% gelatin coated 60p dish and maintained in a medium (GMEM, Invitrogen) containing 10% knockout serum, 2-mercaptoethanol (Invitrogen), sodium pyruvate (Invitrogen), non-essential amino acid and antibiotics (Invitrogen). leukemia inhibitory factor (LIF), Blasticidin (Invitrogen) and G418 (Invitrogen) were added in the medium at the time of the medium change. OP9 cells were maintained in a medium (alpha MEM, Invitrogen) containing 20% of fetal bovine serum (FBS), 2-mercaptoethanol (Invitrogen), L-glutamine (Invitrogen) and antibiotics (Invitrogen). The medium was changed every 2 days for both EMG7 ESCs and OP9 cells. For induction of Flk1+MPCs, EMG7 ESCs were cultured and plated on a 0.1% gelatin coated 100 p dish in the differentiation medium (alpha MEM, Invitrogen) with contained 10% FBS, 2-mercaptoethanol (Invitrogen), L-glutamine (Invitrogen) and antibiotics (Invitrogen) for 4.5 days (96-112 hours). The medium was changed every 2 days. At 4.5 days, differentiated EMG7 ESCs were harvested with 0.025% trypsin-EDTA and antigen recovery was performed in the differentiation medium for 30 minutes in an incubator. Then, cells were washed using phosphate buffered saline/10% FBS and attached with biotin-conjugated anti-mouse Flk1+ antibody (eBioscience) and […] MicroBeads (Miltenyi Biotec). Flk1+ MPCs were sorted by AutoMACS Pro Separator (Miltenyi Biotec). Sorted Flk1+ MPCs were plated onto the mitomycin-C (MMC) (Ag scientific) treated confluent OP9 cells at a density of 1-2×10^4 cells/cm^2 and cultured in the differentiation medium. The medium was changed every 2 days. CsA (a gift from Novartis Pharma, Korea) was treated in sorted Flk1+ MPCs on OP9 cells. CsA was dissolved in dimethyl sulfoxide (DMSO) (Sigma) and diluted 2┌ g/mL in the differentiation medium at the time of medium change. 10┌ M of Y27632 (purchased from Calbiochem) were treated in sorted Flk1+MPCs on OP9 cells and sorted MHC GFP+CMs at the time of medium change. Analysis and sorting for CMs were performed at day 10.5. We harvested differentiated Flk1+ MPCs on OP9 cells with 0.25% trypsin-EDTA or dissociation buffer (Invitrogen). Cardiac troponin-T (cTnT)+ and ┌ smooth muscle actin (SMA)+ cells were analyzed after permeabilization using Cytofix/Cytoperm solution (BD Biosciences) for 15 min. After permeabilization, the cells were incubated for 30 min with anti-mouse cTnT (NeoMarkers) monoclonal antibody. […] Data were analyzed using FlowJo Version 7.5.4 software (TreeStar).
# [5] = Y27632 10 μM plus CsA vs CsA only, day 10.5
smiles,measurement,setting,value
C[C@@H](N)[C@H]1CC[C@H](C(=O)Nc2ccncc2)CC1 [Y27632],increase of BrdU+/CD144+ EC population,CD144+ ECs; 12 hrs,1.7 fold
same,increase of BrdU+/CD144+ EC population,CD144+ ECs; 36 hrs,2.7 fold
same,increase of population of CD144+ ECs in S phase compared to control,CD144+ ECs; 36 hrs,1.23 fold
same,reduction of CD144+ ECs in G0/G1 phase compared to control,CD144+ ECs; 36 hrs,12%
same,adhesion of Flk1+ cells onto the plates compared to control,Flk1+ MPCs [1],1.3 fold
same,increase of percentage of cells in S phase compared to control,ICAM2+ ECs [2],~1.8 fold
same,apoptosis of ECs,ICAM2+ ECs [3],mildly inhibited
same,area of self-beating CMs,Flk1+ MPCs [4]; Y27632 10 μM plus CsA 2 μg/mL,strikingly increased
same,increase of cTnT+ CMs compared to control CsA only,"Flk1+ MPCs [4]; Y27632 10 μM plus CsA 2 μg/mL, 6 days",~1.9 fold
same,increase of area of cTnT+ CMs,Flk1+ MPCs [4]; [5],~2.3 fold
same,increase of area of αMHC GFP+ CMs,Flk1+ MPCs [4]; [5],~1.7 fold
